Data on 16 compounds can be found in patent publication US7687535B2, “Substituted 3-sulfur indoles” (AstraZeneca AB, priority 2003, dated 2010).

Test system in one data set: not given
Assay: not given
Conditions: not given
As to `Cc1c(Sc2ccccc2Cl)c2cc(NS(C)(=O)=O)ccc2n1CC(=O)O` [Example 5, 3-[(2-Chlorophenyl)thio]-2-methyl-5-[(methylsulfonyl)amino]-1H-indole-1-acetic acid], the melting point is 212 °C.

Take `Cc1c(Sc2cccc(Cl)c2)c2cc(NS(C)(=O)=O)ccc2n1CC(=O)O` [Example 6, 3-[(3-Chlorophenyl)thio]-2-methyl-5-[(methylsulfonyl)amino]-1H-indole-1-acetic acid]: the melting point worked out at 224 °C. In the case of `Cc1c(Sc2ccc(Cl)cc2)c2cc(NS(C)(=O)=O)ccc2n1CC(=O)O` [Example 7, 3-[(4-Chlorophenyl)thio]-2-methyl-5-[(methylsulfonyl)amino]-1H-indole-1-acetic acid], the melting point worked out at 214 °C. In turn, `COc1cccc(Sc2c(C)n(CC(=O)O)c3ccc(NS(C)(=O)=O)cc23)c1` [Example 8, 3-[(3-Methoxyphenyl)thio]-2-methyl-5-[(methylsulfonyl)amino]-1H-indole-1-acetic acid] yielded a melting point of 292 °C.

Regarding `COc1ccc(Sc2c(C)n(CC(=O)O)c3ccc(NS(C)(=O)=O)cc23)cc1` [Example 9, 3-[(4-Methoxyphenyl)thio]-2-methyl-5-[(methylsulfonyl)amino]-1H-indole-1-acetic acid], the melting point was 215 °C. The same measure, in the same setting: next, `Cc1c(Sc2ccccc2C(F)(F)F)c2cc(NS(C)(=O)=O)ccc2n1CC(=O)O` [Example 10, 3-[(2-Trifluoromethylphenyl)thio]-2-methyl-5-[(methylsulfonyl)amino]-1H-indole-1-acetic acid]: 207 °C. Still for that read-out and setting: next, `Cc1c(Sc2cccc3cccnc23)c2cc(NS(C)(=O)=O)ccc2n1CC(=O)O` [Example 11, 3-[(8-Quinolinyl)thio]-2-methyl-5-[(methylsulfonyl)amino]-1H-indole-1-acetic acid]: 257 °C; `Cc1c(Sc2ccccc2C(C)C)c2cc(NS(C)(=O)=O)ccc2n1CC(=O)O` [Example 12, 3-[(2-(Methylethyl)phenyl)thio]-2-methyl-5-[(methylsulfonyl)amino]-1H-indole-1-acetic acid]: 160 °C. On to `Cc1c(Sc2ccc(Cl)cc2)c2c(NC(=O)C3CC3)cccc2n1CC(=O)O` [Example 15], for which the melting point was 183 to 185 °C. Consider `Cc1c(Sc2ccc(Cl)cc2)c2c(NC(=O)c3ccccc3)cccc2n1CC(=O)O` [Example 16, 4-(Benzoylamino)-3-[(4-chlorophenyl)thio]-2-methyl-1H-indole-1-acetic acid], for which the melting point lay in the range of 213 to 215 °C. Turning to `Cc1c(Sc2cccc(S(C)(=O)=O)c2)c2cc(NS(C)(=O)=O)ccc2n1CC(=O)O` [Example 30, 2-Methyl-5-[(methylsulfonyl)amino]-3-[[3-(methylsulfonyl)phenyl]thio]-1H-indole-1-acetic acid], the melting point was in the range of 233 to 236 °C. Same read-out and setting: next, `Cc1c(Sc2ccccc2S(C)(=O)=O)c2cc(NS(C)(=O)=O)ccc2n1CC(=O)O` [Example 31, 2-Methyl-5-[(methylsulfonyl)amino]-3-[[2-(methylsulfonyl)phenyl]thio]-1H-indole-1-acetic acid]: 227 to 230 °C; `Cc1c(Sc2ccc(S(C)(=O)=O)cc2)c2cc(-c3cncnc3)ccc2n1CC(=O)O` [Example 32]: above 290 °C.

The target in a further data set is T1, rhCRTh2 (Homo sapiens, UniProt Q9Y5Y4).
T1 construct: expressed in transfected cells; host or cells: HEK cells (membrane preparation)
T1 sequence (Q9Y5Y4 1-395): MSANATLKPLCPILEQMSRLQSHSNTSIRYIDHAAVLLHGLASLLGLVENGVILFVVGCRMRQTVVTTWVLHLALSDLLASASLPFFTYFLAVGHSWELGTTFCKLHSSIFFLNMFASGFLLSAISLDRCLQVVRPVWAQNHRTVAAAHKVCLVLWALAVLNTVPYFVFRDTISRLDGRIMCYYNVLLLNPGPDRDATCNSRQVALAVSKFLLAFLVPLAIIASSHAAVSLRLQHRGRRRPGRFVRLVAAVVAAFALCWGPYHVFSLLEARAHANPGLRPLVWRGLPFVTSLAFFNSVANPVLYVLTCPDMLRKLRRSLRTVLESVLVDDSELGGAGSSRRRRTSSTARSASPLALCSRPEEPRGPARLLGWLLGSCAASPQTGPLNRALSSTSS
As to the kind of experiment: Ligand Binding Assay ([3H]PGD2 SPA, HEK cell membranes). The note with it: [3H]PGD2 binding to membranes of HEK cells expressing rhCRTh2/Gα16, SPA beads, 2 hours at room temperature. As for the experimental part:
[^3H]PGD2 was purchased from Perkin Elmer Life Sciences with a specific activity of 100-210 Ci/mmol. All other chemicals were of analytical grade.
HEK cells expressing rhCRTh2/Gα16 were routinely maintained in DMEM containing 10% Foetal Bovine Serum (HyClone), 1 mg/ml geneticin, 2 mM L-glutamine and 1% non-essential amino acids. For the preparation of membranes, the adherent transfected HEK cells were grown to confluence in two layer tissue culture factories (Fisher, catalogue number TKT-170-070E). Maximal levels of receptor expression were induced by addition of […] sodium butyrate for the last 18 hours of culture. The adherent cells were washed once with phosphate buffered saline (PBS, 50 ml per cell factory) and detached by the addition of 50 ml per cell factory of ice-cold membrane homogenisation buffer [20 mM HEPES (pH 7.4), 0.1 mM dithiothreitol, 1 mM EDTA, 0.1 mM phenyl methyl sulphonyl fluoride and 100 μg/ml bacitracin]. […] The final pellet was re-suspended in 4 ml of membrane homogenisation buffer per cell factory used and the protein content determined. […]
All assays were performed in Corning clear bottomed, white 96-well NBS plates (Fisher). […] (The optimum coating concentrations were determined for each batch of membranes) The beads were pelleted by centrifugation (800×g for 7 minutes at 4° C.), washed once with assay buffer (50 mM HEPES pH 7.4 containing 5 mM magnesium chloride) and finally re-suspended in assay buffer at a bead concentration of 10 mg/ml.
Each assay contained 20 μl of 6.25 nM [^3H]PGD2, 20 μl membrane saturated SPA beads both in assay buffer and 10 μl of compound solution or 13,14-dihydro-15-keto prostaglandin D2 (DK-PGD2, for determination of non-specific binding, Cayman chemical company). […] The assay plate was incubated at room temperature for 2 hours and counted on a Wallac Microbeta liquid scintillation counter (1 minute per well).
The compound `CCN(C(C)=O)c1cccc2c1c(Sc1ccc(Cl)cc1)c(C)n2CC(=O)O` [Example 14, 4-(Acetylethylamino)-3-[(4-chlorophenyl)thio]-2-methyl-1H-indole-1-acetic acid] showed an IC50 of 224 nM. As to `Cc1c(Sc2ccc(S(C)(=O)=O)cc2)c2c(-c3cccs3)cccc2n1CC(=O)O` [Example 26, 2-Methyl-3-[[4-(methylsulfonyl)phenyl]thio]-4-(2-thiophenyl)-1H-indole-1-acetic acid], the IC50 was 4.47 nM. In the case of `Cc1noc(C)c1-c1ccc2c(c1)c(Sc1ccc(S(C)(=O)=O)cc1)c(C)n2CC(=O)O` [Example 34, 5-(3,5-Dimethyl-4-isoxazolyl)-2-methyl-3-[[4-(methylsulfonyl)phenyl]thio]-1H-indole-1-acetic acid], the half-inhibitory concentration (IC50) is 0.398 nM.

The term melting point denotes the temperature of the solid-liquid transition. A word on the IC50: it is the concentration that gives 50% inhibition.
